Structures can show the parent of a compound that is named as a salt. Where two headings read alike, the source gives them in different places.

Data set [1] deals with T1, cloned human 5-HT1A receptors (Homo sapiens, UniProt P08908).
T1 construct: expressed in transfected cells
T1 sequence (P08908 1-422): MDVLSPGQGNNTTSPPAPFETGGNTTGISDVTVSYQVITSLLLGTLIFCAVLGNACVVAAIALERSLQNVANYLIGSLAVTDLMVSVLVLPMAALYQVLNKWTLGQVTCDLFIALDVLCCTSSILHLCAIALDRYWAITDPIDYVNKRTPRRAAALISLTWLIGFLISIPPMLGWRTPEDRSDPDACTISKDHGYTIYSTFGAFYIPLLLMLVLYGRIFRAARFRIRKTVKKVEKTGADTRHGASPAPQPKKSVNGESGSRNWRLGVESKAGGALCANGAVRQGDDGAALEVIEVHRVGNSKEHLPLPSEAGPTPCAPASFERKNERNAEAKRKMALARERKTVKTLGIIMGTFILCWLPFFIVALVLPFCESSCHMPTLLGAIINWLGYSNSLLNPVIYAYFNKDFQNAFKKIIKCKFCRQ
Kind of data set: 35S-GTPγS binding assay, reversal of the standard agonist 8-OH-DPAT. The format is biochemical. The note with it: for 5-HT1A Function Imax (maximum inhibitory effect): value in parentheses. The protocol: Antagonist activity at 5-HT1A receptors was established by using a ^35S-GTPγS binding assay similar to that used by Lazareno and Birdsall (Br. J. Pharmacol. 109: 1120, 1993), in which the test compound's ability to affect the binding of ^35S-GTPγS to membranes containing cloned human 5-HT1A receptors was determined. Agonists produce an increase in binding whereas antagonists produce no increase but rather reverse the effects of the standard agonist 8-OH-DPAT. The test compound's maximum inhibitory effect is represented as the Imax, while its potency is defined by the IC50.

For another data set, the target named is T2, human 5-HT1A receptors (Homo sapiens, UniProt P08908).
T2 construct: expressed in transfected cells; host or cells: CHO cells
T2 sequence (P08908 1-422): T1 sequence (P08908 1-422)
Kind of data set: [3H] 8-OH-DPAT displacement from 5-HT1A receptor. The format is binding. The note with it: CHO cells stably transfected with human 5-HT1A receptors, read-out: 5-HT1A Receptor Affinity KI. An excerpt:
High affinity for the serotonin 5-HT1A receptor was established by testing the claimed compound's ability to displace [^3H] 8-OH-DPAT (dipropylaminotetralin) from the 5-HT1A serotonin receptor following a modification of the procedure of Hall et al. J. Neurochem. 44, 1685 (1985) which utilizes CHO cells stably transfected with human 5-HT1A receptors.

Where [2] appears, read: 35S-GTPγS binding, membranes with cloned human 5-HT1A receptors, antagonist potency, read-out: 5-HT1A Function IC50.

One may read the melting point as the temperature of the solid-liquid transition. Turning to `Cc1nc2ccc3c(c2o1)OC(CN1CCC2(CC1)C(=O)NCN2c1ccccc1)CO3` (centres unmarked) (as salt: fumarate) [Example 1, 8-(2-Methyl-7,8-dihydro-1,6,9-trioxa-3-aza-cyclopenta[a]naphthalen-8-ylmethyl)-1-phenyl-1,3,8triazaspiro[4.5]decan-4-one], the melting point was determined as 240 °C.

As to `Cc1nc2ccc3c(c2o1)OC(CN1CCC(C(=O)c2ccc(F)cc2)CC1)CO3` (centres unmarked) (as salt: fumarate) [Example 4, (4-Fluorophenyl) (1-[2-methyl-7,8-dihydro-1,6,9-trioxa-3-aza-cyclopenta[a]naphthalen-8-ylmethyl]-4-piperidinyl)methanone], the melting point lay in the range of 229 to 230 °C.

For `Cc1nc2ccc3c(c2o1)O[C@@H](CN1CC=C(c2cccc(C(F)(F)F)c2)CC1)CO3` (as salt: fumarate) [Example 5], the melting point was in the range of 170 to 173 °C.

In turn, `Cc1nc2ccc3c(c2o1)OC(CN1CCCCC1)CO3` (centres unmarked) (as salt: fumarate) [Example 6, 2-Methyl-8-(piperidin-1-ylmethyl)-7,8-dihydro-1,6,9-trioxa-3-aza-cyclopenta[a]naphthalene] yielded a melting point of 109 to 112 °C.

As usually defined, the IC50 is the concentration that inhibits the measured activity by half. A word on the Ki: it is the equilibrium dissociation constant of an inhibitor or competing ligand from its target. On to `Cc1nc2ccc3c(c2o1)OC(CN1CCC2(CC1)C(=O)NCN2c1ccccc1)CO3` (centres unmarked) [Example 1, 8-(2-Methyl-7,8-dihydro-1,6,9-trioxa-3-aza-cyclopenta[a]naphthalen-8-ylmethyl)-1-phenyl-1,3,8triazaspiro[4.5]decan-4-one], for which, in data set [1] (setting [2]), the IC50 was found to be 1050 nM. Also, the “5-HT1A Function Imax (maximum inhibitory effect)” value in data set [1] (35S-GTPγS binding) was determined as 60.0. The Ki at human 5-HT1A receptors was 0.93 nM.

In turn, `Cc1nc2ccc3c(c2o1)OC(CN1CCC(n2c(=O)[nH]c4ccccc42)CC1)CO3` (centres unmarked) [Example 2, 1-[1-(2-Methyl-7,8-dihydro-1,6,9-trioxa-3-aza-cyclopenta[a]naphthalen-8-ylmethyl)-piperidin-4-yl]-1,3-dihydro-2H-benzimidazol-2-one] returned a melting point of 218 to 220 °C. In data set [1], the half-inhibitory concentration (IC50) was found to be 2.7 nM. Also, the “5-HT1A Function Imax (maximum inhibitory effect)” value in data set [1] (35S-GTPγS binding) amounted to 42.0. In addition, the Ki at human 5-HT1A receptors was 1 nM.

`Cc1nc2ccc3c(c2o1)OC(CN1CCC(O)(c2cccc(C(F)(F)F)c2)CC1)CO3` (centres unmarked) [Example 3, 1-(2-Methyl-7,8-dihydro-1,6,9-trioxa-3-aza-cyclopenta[a]naphthalen-8-ylmethyl)-4-[3-(trifluoromethyl)phenyl]-4-piperidinol] showed a melting point of 148 to 151 °C. In addition, the IC50 in data set [1] turned out to be 47 nM. The “5-HT1A Function Imax (maximum inhibitory effect)” value in data set [1] (35S-GTPγS binding) is on record as 47.0 (47.0). In addition, the Ki on human 5-HT1A receptors worked out at 6.52 nM.

Consider `Cc1nc2ccc3c(c2o1)OC(CN1CCC(C(=O)c2ccc(F)cc2)CC1)CO3` (centres unmarked) [Example 4, (4-Fluorophenyl) (1-[2-methyl-7,8-dihydro-1,6,9-trioxa-3-aza-cyclopenta[a]naphthalen-8-ylmethyl]-4-piperidinyl)methanone], for which the inhibition constant (Ki) at human 5-HT1A receptors came out at 202 nM.

Regarding `Cc1nc2ccc3c(c2o1)O[C@@H](CN1CC=C(c2cccc(C(F)(F)F)c2)CC1)CO3` [Example 5], the IC50 in data set [1] (setting [2]) came to 798 nM. Moreover, the “5-HT1A Function Imax (maximum inhibitory effect)” value in data set [1] (35S-GTPγS binding) was determined as 97.0. Further, the Ki on human 5-HT1A receptors was 39.4 nM.

For the compound `Cc1nc2ccc3c(c2o1)OC(CN1CCCCC1)CO3` (centres unmarked) [Example 6, 2-Methyl-8-(piperidin-1-ylmethyl)-7,8-dihydro-1,6,9-trioxa-3-aza-cyclopenta[a]naphthalene], the Ki on human 5-HT1A receptors was 173 nM.

Source of the values: patent publication US6815448B2, “Azaheterocyclylmethyl derivatives of 7,8-dihydro-1,6,9-trioxa-3-aza-cyclopenta[a]naphthalene as 5-HT1A antagonists” (Wyeth, priority 2001, dated 2004).
